One series deals with T1, CYP17A1 (Homo sapiens, UniProt P05093).
T1 construct: expressed in transfected cells
T1 sequence (P05093 1-508): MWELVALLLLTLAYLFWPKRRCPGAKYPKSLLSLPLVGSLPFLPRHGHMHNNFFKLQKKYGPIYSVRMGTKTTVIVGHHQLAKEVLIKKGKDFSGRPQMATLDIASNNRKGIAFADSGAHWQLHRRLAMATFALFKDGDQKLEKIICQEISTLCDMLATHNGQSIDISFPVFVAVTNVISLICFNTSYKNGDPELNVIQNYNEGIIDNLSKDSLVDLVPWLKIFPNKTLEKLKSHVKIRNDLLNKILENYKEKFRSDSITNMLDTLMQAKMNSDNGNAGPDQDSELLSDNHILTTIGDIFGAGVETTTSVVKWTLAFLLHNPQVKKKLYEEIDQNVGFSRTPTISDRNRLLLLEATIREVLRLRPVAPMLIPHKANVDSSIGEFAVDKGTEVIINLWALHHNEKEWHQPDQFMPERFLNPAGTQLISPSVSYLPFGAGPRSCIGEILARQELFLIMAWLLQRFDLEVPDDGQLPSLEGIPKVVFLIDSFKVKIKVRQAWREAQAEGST
Description: Conversion of [3H]-pregnenolone to DHEA in 293 cells expressing CYP17A1. The format is cell-based. The settings on record: 1 nM drug; 3 h incubation; vehicle 70.1%. From the text: LNCaP and VCaP cells were purchased from the American Type Culture Collection (Manassas, Va.) and maintained in RPMI-1640 with 10% FBS. LAPC4 cells were kindly provided by Dr. Charles Sawyers (Memorial Sloan Kettering Cancer Center, New York, N.Y.) and grown in Iscove's Modified Dulbecco's Medium with 10% FBS. C4-2 cells were kindly provided by Dr. Leland Chung (Cedars-Sinai Medical Center, Los Angeles, Calif.) and maintained in RPMI-1640 with 10% FBS. All experiments done with LNCaP and VCaP were done in plates coated with poly-DL-ornithine (Sigma-Aldrich, St. Louis, Mo.). A 293 cell line stably expressing human CYP17A1 was generated by transfection with plasmid pcDNA3-CYP17 (a generous gift of Dr. Walter Miller, University of California, San Francisco) and selection with G418. Cell lines was authenticated by DDC Medical (Fairfield, Ohio) and determined to be […] mycoplasma free with primers.
Cell Line Metabolism: Cells were seeded and incubated in 12-well plates with 0.2 million cells/well for ˜24 h and then incubated with a mixture of radioactive ([^3H]-labeled) and non-radioactive androgens (final concentration, 100 nM; ˜1,000,000 cpm/well; PerkinElmer, Waltham, Mass.) at 37° C. Aliquots of medium were collected at the indicated times. Collected medium was treated with 1,000 units of β-glucuronidase (Helix pomatia; Sigma-Aldrich) at 65° C. for 2 h, extracted with 860 μL ethyl acetate:isooctane (1:1), and concentrated under nitrogen gas. Xenograft Metabolism: 10^7 LNCaP or VCaP cells were injected subcutaneously with Matrigel into surgically orchiectomized NSG mice that were implanted with 5 mg 90-day sustained-release DHEA pellets (Innovative Research of American, Sarasota, Fla.). Xenografts were harvested when they reached 1000 mm^3, minced, and cultured in DMEM with 10% FBS at 37° C. with mixture of radioactive ([^3H]-labeled) and non-radioactive androgens, or Abi, when they reached 1000 mm^3. Each xenograft was analyzed in triplicate in at least three independent experiments. Aliquots of medium were collected at the indicated times. […]
Dried samples were reconstituted in 50% methanol and injected into the HPLC. […] Alternatively, dried samples were applied to plastic-backed silica gel plates and separated by thin-layer chromatography (TLC) using a mobile phase of 3:1 chloroform:ethyl acetate, followed by exposure of the plates to a phosphorimager screen and quantitated with a Storm model 860 phosphorimager (Applied Biosystems, Foster City, Calif.). […]
Cell lines, drugs and constructs. […] Cell lines were authenticated by DDC Medical (Fairfield, Ohio) and determined to be mycoplasma free with primers. […]

Series [1] in a line: Phase II clinical trial NCT01393730: serum Abi metabolites before and after dutasteride. The format is in vivo, human. The method, then: Twelve patients with CRPC undergoing treatment with Abi acetate at Cleveland Clinic were consented under an Institutional Review Board—approved protocol (Case 7813). Blood was collected using Vacutainer Plus serum blood collection tubes (#BD367814, Becton Dickenson, Franklin Lakes, N.J.), between 1 and 16 hours after the 1000 mg daily dose of Abi acetate was administered, and allowed to clot. Tubes were centrifuged at 2500 RPM or 1430×g for 10 minutes. Serum aliquots were frozen at −80° C. until processing. To study the effect of dutasteride on Abi metabolism, serum samples were collected from patients treated on a phase II clinical trial at Dana-Farber Cancer Institute (NCT01393730). Each patient received Abi acetate (1,000 mg daily) plus prednisone (5 mg daily) for 2 cycles (8 weeks) and then additional treatment with dutasteride ([…]) was initiated. Samples were collected on treatment with Abi alone and after addition of dutasteride (start of cycles 3, 4 and 7). Seventeen patients treated at this institution on this clinical trial had blood available from all 3 time points. One patient had Abi concentrations that were under the limit of detection and was later determine to have stopped treatment because of adverse effects and was therefore not included in the analysis. Drug metabolites and internal standard (d4-abiraterone, Toronto Research Chemicals Inc, Ontario Canada) were extracted from 100 μL of patient serum with methyl tert-butyl ether (Sigma Aldrich, St. Louis, Mo.), evaporated under a stream of nitrogen gas and reconstituted in methanol:water (50:50) prior to mass spectrometry analysis. Standard curves were generated using human serum spiked with known concentrations of each metabolite to enable determination of unknown concentrations in patient samples
Samples were analyzed on a ultra high-performance liquid chromatography station (Shimadzu, Kyoto, Japan) with a DGU-20A3R degasser, 2 LC-30AD pumps, a SIL-30AC autosampler, a CTO-10A column oven and a CBM-20A system controller in tandem with a QTRAP 5500 mass spectrometer (AB Sciex, Framingham, Mass.). Drug metabolites were ionized using electrospray ionization in positive ion mode. Multiple reaction monitoring was used to follow mass transitions for Abi, IS, and the metabolites (Table 1). Due to the similarity in structure and mass transitions for the metabolites it was necessary to separate them with chromatography. Separation of drug metabolites was achieved using a mobile phase consisting of LC-MS grade (Fisher) methanol: acetonitrile: water:formic acid (39:26:34:1) at a flow rate of 0.2 ml/min., and C18 analytical column; Zorbax Eclipse plus 150×2.1 mm, 3.5 μm (Agilent, Santa Clara, Calif.).

The conditions of series [2]: patients; wide interpatient variability; cited from earlier work.
Another series addresses T2, SRD5A1 (Homo sapiens, UniProt P18405).
T2 sequence (P18405 1-259): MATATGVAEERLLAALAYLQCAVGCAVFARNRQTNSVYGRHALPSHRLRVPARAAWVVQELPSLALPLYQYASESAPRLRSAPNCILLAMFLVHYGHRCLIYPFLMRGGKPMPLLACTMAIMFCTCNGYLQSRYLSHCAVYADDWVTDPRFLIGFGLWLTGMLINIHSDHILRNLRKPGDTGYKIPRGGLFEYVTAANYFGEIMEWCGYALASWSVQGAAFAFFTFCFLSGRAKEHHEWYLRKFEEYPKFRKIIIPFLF
The settings on record: LAPC4 cells.

The subject of the next series is LNCaP cells. Description: Cell proliferation assay, DHT-stimulated growth. Particulars: DHT 0.5 nM, 2, 4 and 6 days. The format is cell-based, human. The method, then:
LNCaP cells (0.1 million/mL) were seeded in 96-well plates and cultured in phenol red free RPMI-1640 mediums plus 10% charcoal stripped FBS with androgens and/or drugs. Medium was changed every other day. After 2, 4 or 6 days, cells were collected and lysed after treatment. Growth was then determined based on DNA content as detected by Hoechst stain and a Wallac Victor2 1420 Multilabel counter (Perkin Elmer). Two-tailed student's t-test was used to determine significance.

The target in the next series is T3, SRD5A (Homo sapiens, UniProt P18405).
T3 construct: endogenous in cells; host or cells: LAPC4
T3 sequence (P18405 1-259): T2 sequence (P18405 1-259)
Description: Conversion of [3H]-AD to 5α-reduced androgens in LAPC4 cells. In kind it is cell-based. Particulars: up to 100 μM; LAPC4 cells. The method, then: Cell Line Metabolism: Cells were seeded and incubated in 12-well plates with 0.2 million cells/well for ˜24 h and then incubated with a mixture of radioactive ([^3H]-labeled) and non-radioactive androgens (final concentration, 100 nM; ˜1,000,000 cpm/well; PerkinElmer, Waltham, Mass.) at 37° C. Aliquots of medium were collected at the indicated times. Collected medium was treated with 1,000 units of β-glucuronidase (Helix pomatia; Sigma-Aldrich) at 65° C. for 2 h, extracted with 860 μL ethyl acetate:isooctane (1:1), and concentrated under nitrogen gas. Xenograft Metabolism: 10^7 LNCaP or VCaP cells were injected subcutaneously with Matrigel into surgically orchiectomized NSG mice that were implanted with 5 mg 90-day sustained-release DHEA pellets (Innovative Research of American, Sarasota, Fla.). Xenografts were harvested when they reached 1000 mm^3, minced, and cultured in DMEM with 10% FBS at 37° C. with mixture of radioactive ([^3H]-labeled) and non-radioactive androgens, or Abi, when they reached 1000 mm^3. Each xenograft was analyzed in triplicate in at least three independent experiments. Aliquots of medium were collected at the indicated times. Collected medium was treated with 1,000 units of β-glucuronidase at 65° C. for 2 h, extracted with 860 μL ethyl acetate:isooctane (1:1), and concentrated under nitrogen gas.
Dried samples were reconstituted in 50% methanol and injected into the HPLC. Steroids and drug metabolites were separated on Kinetex 100×2.1 mm, 2.6 μm particle size C18 reverse-phase column (Phenomenex, Torrance, Calif.) using a methanol/water gradient at 30° C. […] Alternatively, dried samples were applied to plastic-backed silica gel plates and separated by thin-layer chromatography (TLC) using a mobile phase of 3:1 chloroform:ethyl acetate, followed by exposure of the plates to a phosphorimager screen and quantitated with a Storm model 860 phosphorimager (Applied Biosystems, Foster City, Calif.). […] Results are shown as mean±SD.
Collected medium was treated with β-glucuronidase (Helix pomatia; Sigma-Aldrich), extracted with ethyl acetate:isooctane (1:1), and concentrated under nitrogen gas as described. Li et al., 523, 347-351 (2015).
Dried samples were reconstituted in 50% methanol and separated on Kinetex 100×2.1 mm, 2.6 μm particle size C18 reverse-phase column (Phenomenex, Torrance, Calif.) using a methanol/water gradient at 30° C. […] Results are shown as mean±SD.

This is an account of results in patent US10265329B2, “Altering steroid metabolism for treatment of steroid-dependent disease” (THE CLEVELAND CLINIC FOUNDATION, priority 2015, dated 2019).

Each structure is given as a SMILES string.

Description for SRD5A1: Cell Line Metabolism: 0.2 million/ml cells were seeded and incubated in 12-well plates for ˜24 h before incubation with the indicated drugs or a mixture of [^3H]-labeled (˜1,000,000 cpm/well; PerkinElmer, Waltham, Mass.) and non-radioactive androgens (final concentration, 100 nM) at 37° C. Collected medium was treated with β-glucuronidase (Helix pomatia; Sigma-Aldrich), extracted with ethyl acetate:isooctane (1:1), and concentrated under nitrogen gas as described.
Dried samples were reconstituted in 50% methanol and separated on Kinetex 100×2.1 mm, 2.6 μm particle size C18 reverse-phase column (Phenomenex, Torrance, Calif.) using a methanol/water gradient at 30° C. The column effluent was analyzed using a 254 nm UV-visible detector or β-RAM model 3 in-line radioactivity detector (IN/US Systems, Inc.) using Liquiscint scintillation cocktail (National Diagnostics, Atlanta, Ga.). All HPLC studies were conducted in triplicate and repeated at least 3 times in independent experiments. Results are shown as mean±SD.

Usually Cmax stands for the peak of the concentration-time curve. As to `C[C@]12CC[C@H](O)CC1=CC[C@@H]1[C@@H]2CC[C@]2(C)C(c3cccnc3)=CC[C@@H]12` [Abi, Abiraterone, reference compound], the “% conversion to DHEA” value at CYP17A1 was 2.6%. For the same compound, the “mean serum concentration, cycle 3” value in series [1] (Abi acetate 1000 mg daily plus prednisone alone, 16 patients) was found to be 191.2 nM. For the same compound, in series [1] (after addition of dutasteride 3.5 mg once daily, 16 patients), the “mean serum concentration, cycle 4” value was determined as 372.4 nM. Besides, the Cmax in series [2] was around 1000 nM.
Turning to `C[C@]12CC[C@H](O)C[C@@H]1CC[C@@H]1[C@@H]2CC[C@]2(C)C(c3cccnc3)=CC[C@@H]12` [Compound 3β-OH-5α-Abi, 17-(3-pyridyl)-5α-androsta-16-ene-3β-ol], the “decline in mean serum concentration after the addition of dutasteride” value in series [1] (cycle 3 vs. cycle 4) is 73%.
Take `CN1C(=O)CC[C@@H]2c3ccc(Cl)cc3CC[C@H]21` [LY191704]: the “block of conversion of D4A to 5α-Abi and 3α-OH-5α-Abi” value on SRD5A1 is given as “blocks conversion”.
On the same count and under the same terms, next, `C[C@]12C=CC(=O)N[C@@H]1CC[C@@H]1[C@@H]2CC[C@]2(C)[C@@H](C(=O)Nc3cc(C(F)(F)F)ccc3C(F)(F)F)CC[C@@H]12` [dutasteride]: “blocks conversion”.
Regarding `CNC(=O)c1ccc(N2C(=S)N(c3ccc(C#N)c(C(F)(F)F)c3)C(=O)C2(C)C)cc1F` [enzalutamide, reference compound], the “effect on DHT-stimulated cell growth” value in the series on LNCaP cells is given as “more potent than Abi”. In addition, the “effect on conversion from AD to 5α-reduced androgens” value on SRD5A is recorded as “no detectable effect”.
